Positions count from the first letter of the chain named. Several values for one entry are separate records, joined by “and”; a condition that tells them apart may be missing. Equal entries are not always repeated.
What was measured:
Assay type in all cases: biochemical
R132H IDH1 [1] = target: T1, R132H IDH1 (Homo sapiens, UniProt O75874, R132H); test: Electrochemical assay (FNR+R132H IDH1)@ITO/PGE electrode; design: made in house; host or cells: Escherichia coli BL21(DE3) pLyS (IDH1 R132H)
Procedure: Assays were carried out in an anaerobic glovebox (Glove Box Technology) under a nitrogen atmosphere. A potentiostat (Autolab PGSTAT 10) running on Nova software was used for all experiments. As previously described, the electrochemical apparatus included an Autolab electrode rotator, a two-chamber custom-made glass electrochemical cell, and custom-made rotating pyrolytic graphite edge (PGE) electrodes ([55]). Platinum wire was used as the counter electrode; it was placed in the working electrode chamber. Electrode potentials (E) were measured against a saturated calomel electrode and converted to the standard hydrogen electrode using a temperature-dependent equation (at 25 °C: ESHE = ESCE + 0.2412 V) ([55]). Nanoporous indium tin oxide (ITO) electrodes were made by electrophoretically depositing ITO nanoparticles (<50 nm, Sigma-Aldrich) onto PGE electrodes (ITO/PGE) as previously described ([55]). […] In all experiments, 0.85 nmol (homodimer basis) of IDH1 R132H was used; the amount of coloaded FNR was adjusted to achieve the desired enzyme loading ratio. Electrodes loaded with enzyme were thoroughly rinsed using buffer solution before each experiment to remove excess enzyme. […]
and controlled electrochemically under steady-state conditions (1).
Conditions: 25 °C, mixed buffer (20 […]
mM each MES, TAPS, CHES, pH 8.0), 10 mM MgCl2, 10 µM NADPH, 4 mL cell volume, (FNR+R132H IDH1)@ITO/PGE electrode, electrode area 0.06 cm2, rotated at 1000 rpm, E = –0.513 V vs SHE, enzyme loading ratios (molar): FNR/R132H IDH1; 2.5 (dimer basis).
(1 picture or pasted object on this page, not shown here)
Target sequence in this assay (O75874 2-414 R132H): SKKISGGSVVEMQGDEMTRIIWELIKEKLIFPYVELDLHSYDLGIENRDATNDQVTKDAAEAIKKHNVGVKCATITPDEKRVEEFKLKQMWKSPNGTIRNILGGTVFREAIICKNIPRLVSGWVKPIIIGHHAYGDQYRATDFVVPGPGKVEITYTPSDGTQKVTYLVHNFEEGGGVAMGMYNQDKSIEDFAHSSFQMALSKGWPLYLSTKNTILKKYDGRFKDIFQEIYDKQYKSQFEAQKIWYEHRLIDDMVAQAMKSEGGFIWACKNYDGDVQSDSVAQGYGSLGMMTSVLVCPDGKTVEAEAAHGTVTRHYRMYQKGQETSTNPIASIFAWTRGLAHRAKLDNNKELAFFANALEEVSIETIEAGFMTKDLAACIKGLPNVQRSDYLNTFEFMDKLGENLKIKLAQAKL

R140Q IDH2 [2] = target: T2, R140Q IDH2 (Homo sapiens, UniProt P48735, R140Q); test: Absorbance assay, variant activity in the presence of equimolar 2OG (inhibition screen); settings: 6.0 mM 2OG and 6.0 mM test compound, 0.03 μM R140Q IDH2, 50 μM NADPH
T2 construct: made in house; host or cells: Sf21 insect cells (cell pellets prepared at Evotec)
T2 sequence (P48735 40-452 R140Q): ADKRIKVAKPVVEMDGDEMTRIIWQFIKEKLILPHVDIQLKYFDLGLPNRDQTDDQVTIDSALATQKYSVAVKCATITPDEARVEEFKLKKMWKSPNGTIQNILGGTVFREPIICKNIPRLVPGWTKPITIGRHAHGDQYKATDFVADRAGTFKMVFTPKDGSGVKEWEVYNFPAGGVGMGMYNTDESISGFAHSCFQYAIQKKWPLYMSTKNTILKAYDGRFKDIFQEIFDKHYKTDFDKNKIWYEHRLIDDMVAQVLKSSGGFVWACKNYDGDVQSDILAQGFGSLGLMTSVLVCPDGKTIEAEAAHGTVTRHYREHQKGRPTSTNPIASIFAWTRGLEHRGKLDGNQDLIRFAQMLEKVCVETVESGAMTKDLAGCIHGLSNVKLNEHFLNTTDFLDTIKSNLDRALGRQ
Outline: (§1)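 Reactions were run as technical quadruplicates. Compounds were dispensed with a simultaneous pipettor, and each assay was started by adding reagent from a bulk dispenser.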

R172K IDH2 [3] = target: T3, R172K IDH2 (Homo sapiens, UniProt P48735, R172K); test: as above; settings: 1.0 mM 2OG and 1.0 mM test compound, 0.03 μM R172K IDH2, 50 μM NADPH
T3 construct: made in house; host or cells: Sf21 insect cells (cell pellets prepared at Evotec)
T3 sequence (P48735 40-452 R172K): T2 sequence (P48735 40-452 R140Q) with Q101R, R133K
Outline: as §1

WT IDH1 = target: T4, WT IDH1 (Homo sapiens, UniProt O75874); test: Absorbance assay, WT activity in the presence of equimolar DL-isocitrate (inhibition); settings: […] isocitrate and […] test compound, 75 μM NADP+, 2.0 nM WT IDH1
T4 construct: made in house; host or cells: Escherichia coli BL21(DE3) pLyS
T4 sequence (O75874 whole entry): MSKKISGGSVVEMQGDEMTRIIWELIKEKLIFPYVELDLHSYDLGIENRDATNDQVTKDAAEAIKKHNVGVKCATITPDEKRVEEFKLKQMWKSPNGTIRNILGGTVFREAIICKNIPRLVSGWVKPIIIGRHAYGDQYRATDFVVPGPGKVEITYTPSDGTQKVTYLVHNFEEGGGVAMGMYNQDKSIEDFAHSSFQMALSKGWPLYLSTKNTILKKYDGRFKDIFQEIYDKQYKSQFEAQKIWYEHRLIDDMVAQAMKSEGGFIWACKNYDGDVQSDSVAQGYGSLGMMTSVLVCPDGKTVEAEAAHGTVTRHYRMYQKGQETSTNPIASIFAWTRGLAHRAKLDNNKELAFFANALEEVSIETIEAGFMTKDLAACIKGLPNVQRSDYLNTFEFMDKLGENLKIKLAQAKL
Outline: as §1

WT IDH2 = target: T5, WT IDH2 (Homo sapiens, UniProt P48735); test: as above; settings: […] isocitrate and […] test compound, 75 μM NADP+, 2.0 nM WT IDH2
T5 construct: made in house; host or cells: Sf21 insect cells (cell pellets prepared at Evotec)
T5 sequence (P48735 40-452): T2 sequence (P48735 40-452 R140Q) with Q101R
Outline: as §1

R140Q IDH2 [4] = target: T2, R140Q IDH2; test: Steady-state kinetics, absorbance assay; settings: 0.03 μM enzyme, 50 μM NADPH, 20 mM MgCl2, pH 8.0
Procedure: (§2) Compounds were dispensed using a CyBio SDW-CW CyBi-Well Simultaneous Pipettor and assay started using a ThermoFisher Multidrop Combi reagent dispenser.
(§3) Reactions were performed as technical duplicates, and all assays were carried out in two independent duplicates.

R172K IDH2 [5] = target: T3, R172K IDH2; test: Steady-state kinetics, absorbance assay; settings: 0.03 μM enzyme, 50 μM NADPH, 20 mM MgCl2, pH 8.0
Procedure: as §2, §3

R132H IDH1 [6] = target: T1, R132H IDH1; test: Steady-state kinetics, absorbance assay; design: made in house; host or cells: Escherichia coli BL21(DE3) pLyS
Procedure: as §2, §3
Target sequence in this assay (O75874 whole entry R132H): as the sequence (O75874 whole entry) above, with R132H counted along it

[7] = 0.03 μM enzyme, 50 μM NADPH, 20 mM MgCl2, pH 8.0

predicted change in catalytic rate (R132H IDH1 [1]): −9% | Kmapp (electrochemical assay) (R132H IDH1 [1]; 25 °C, pH 8.0, 10 mM MgCl2, 10 µM NADPH, nanoconfined enzyme): ~0.6 mM | decrease of R132H IDH1 faradaic 'coupled' current during each scan (R132H IDH1 [1]; cyclic voltammetry, stationary electrode, 20 μM NADPH, 10 mM MgCl2, pH 8): −10% | activity [%] (%-substrate conversion after 20 min incubation) (R140Q IDH2 [2]): 100% | activity [%] (%-substrate conversion after 20 min incubation) (R172K IDH2 [3]): 100% | activity [%] (%-substrate conversion after 20 min incubation) (WT IDH1): 93 ± 1% | activity [%] (%-substrate conversion after 20 min incubation) (WT IDH2): 91 ± 1% | Kmapp (R140Q IDH2 [4]): 5.1 ± 1.2 mM and ~5.1 mM | kcatapp (R140Q IDH2 [4]): 0.49 ± 0.04 s⁻¹ and 0.5 to 0.7 s⁻¹ | Kmapp (R172K IDH2 [5]): 0.35 ± 0.04 mM | kcatapp (R172K IDH2 [5]): 0.72 ± 0.04 s⁻¹ and 0.5 to 0.7 s⁻¹ | Kmapp (R132H IDH1 [6]; [7]): ~ 0.85 mM and 0.85 ± 0.19 mM and 0.85 mM | kcatapp (R132H IDH1 [6]; [7]): 0.72 ± 0.04 s⁻¹ and 0.5 to 0.7 s⁻¹ | Vmax (R132H IDH1 [6]; experimental value used for Michaelis-Menten simulation, Fig. 3H): 1.3 µM/min
SMILES: O=C(O)CCC(=O)C(=O)O [2OG, 2-oxoglutarate, reference compound]

Reference: PMC9939733 (The Journal of Biological Chemistry, 2023)
